Data on 17 molecules can be found in publication PMC10197133, “Synthesis, Computational Insights, and Evaluation of Novel Sigma Receptors Ligands” (ACS Chemical Neuroscience, 2023).

Assay [1] deals with T1, S1R (Rattus norvegicus, UniProt Q9R0C9). Description: S1R radioligand binding assay, [3H](+)-pentazocine, liver homogenates. Also noted: from tissue; host or cells: rat liver homogenate (male Sprague-Dawley); species or system male Sprague-Dawley rats. Conditions: for KiS2R/KiS1R (preference for S1R over S2R): ratio of S2R Ki to S1R Ki; for Ki: read-out: Ki (nM) ± SD S1R. The protocol:
(§1) The Ki-values were calculated with the program GraphPad Prism 7.0 (GraphPad Software, San Diego, California). The Ki-values are given as mean value ± SD from at least two independent experiments performed in duplicate.

A further assay concerns the target T2, S2R (Rattus norvegicus, UniProt Q5U3Y7).
T2 construct: from tissue; host or cells: rat liver homogenate (male Sprague-Dawley)
T2 sequence (Q5U3Y7 1-176): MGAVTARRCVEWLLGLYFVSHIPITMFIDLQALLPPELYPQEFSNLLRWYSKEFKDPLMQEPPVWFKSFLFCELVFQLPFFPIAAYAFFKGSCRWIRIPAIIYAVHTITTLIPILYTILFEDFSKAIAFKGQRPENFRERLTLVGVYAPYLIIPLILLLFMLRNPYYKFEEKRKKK
Description: S2R radioligand binding assay, [3H]DTG with (+)-pentazocine as S1R masking agent, liver homogenates. Also noted: species or system male Sprague-Dawley rats. Conditions: read-out: Ki (nM) ± SD S2R. As for the experimental part: as §1

Assay [2] concerns the target T1, S1R. The assay can be described thus: S1R functional assay: S1R radioligand binding with or without phenytoin. Also noted: incubating 200 μL of membrane preparation with 50 μL of 20 nM; from tissue; host or cells: membrane preparation. Conditions: for ratio Ki (nM) control/+ phenythoin: >1 agonist, ≤1 antagonist; for S1R functional profile in vitro (phenytoin assay): concluded from Ki ratio control/with phenytoin. The protocol: In order to further asses the functional profile of compounds 4b, 5b, and 8f, the well-established phenytoin-based functional assay was carried out.[52] Previous studies have shown that phenytoin, a low-potent allosteric modulator for the S1R, differentially modulates the affinity of S1R ligands depending on their agonist versus antagonist functionality.
The functionality of compounds 4b, 5b, and 8f on S1R was determined using the same radiolabeled binding assay for the S1R in the presence of phenytoin. […] The final volume was 0.5 mL.

In assay [3] the test system is capsaicin-induced mechanical hypersensitivity in mice. The assay can be described thus: Capsaicin-induced secondary mechanical hypersensitivity (allodynia). It is filed as in vivo, female CD1 mice. Conditions: for S1R functional profile in vivo: concluded from the capsaicin model; for antiallodynic effect, compound administered alone / dose reaching full reversal of mechanical hypersensitivity (maximum antiallodynic effect): s.c.; for antiallodynic effect, compound administered alone: 30 min before capsaicin 1 μg i.pl., paw withdrawal latency at 0.5 g force, 4b 5–20 mg/kg, PRE-084 32 mg/kg; for antiallodynic effect when associated with the S1R agonist PRE-084: PRE-084 32 mg/kg s.c. 5 min before, BD-1063 40 mg/kg, 8f and 5b 20 mg/kg s.c.; for dose reaching full reversal of mechanical hypersensitivity (maximum antiallodynic effect): capsaicin 1 μg i.pl., mice. As for the experimental part: We used capsaicin-induced secondary hypersensitivity (allodynia) as a pain model. It has been described that the increase in mechanical sensitivity in the area surrounding capsaicin injection (area of secondary allodynia) is due to central sensitization, which is a relevant process for chronic pain development and maintenance.[48]
Experiments were performed in female CD1 mice (Charles River, Barcelona, Spain) weighing 25–30 g. The mice were acclimated in our animal facilities for at least 1 week before testing and housed in a room under controlled environmental conditions: 12/12 h day/night cycle, air replacement every 20 min, and regulated temperature (22 ± 2 °C). The animals were fed a standard laboratory diet (Harlan Teklad Research Diet, Madison, Wisconsin) and tap water ad libitum until the beginning of the experiments. Testing was always performed from 9.00 to 15.00 h and randomly throughout the oestrous cycle. Animal care was made in accordance with institutional (Research Ethics Committee of the University of Granada, Spain), regional (Junta de Andalucía, Spain), and international standards (European Communities Council Directive 2010/63).
As selective S1R drugs, we used the S1R antagonist BD-1063 (1-[2-(3,4-dichlorophenyl)ethyl]-4-methylpiperazine dihydrochloride) and the S1R agonist PRE-084 (2-(4-morpholinethyl)-1-phenyl cyclohexane carboxylate hydrochloride) (both provided by Tocris Cookson, Bristol, U.K.).[57] The standard or experimental compounds were dissolved in 5% DMSO (Merck KGaA, Darmstadt, Germany) in physiological sterile saline (0.9% NaCl). They were prepared immediately before the start of the experiments and injected s.c. in a volume of 5 mL/kg into the interscapular area.
To test for the antiallodynic effects of BD-1063, 4b, 5b, or 8f, they were administered 30 min before the injection of capsaicin, used as the chemical algogen. To test the effects of PRE-084 or 4b on the antiallodynia induced by BD-1063, 8f, or 5b, the former were administered 5 min before the latter. When the effect of the association of several drugs was assessed, each injection was performed in different areas of the interscapular zone to avoid mixture of the drug solutions and any physicochemical interaction between them.
Capsaicin (Sigma-Aldrich Química S.A.) was dissolved in 1% DMSO in physiological sterile saline to a concentration of 0.05 μg/μL (i.e., 1 μg per mouse). Capsaicin solution was injected intraplantarly (i.pl.) into the right hind paw proximate to the heel, in a volume of 20 μL using a 1710 TLL Hamilton microsyringe (Teknokroma, Barcelona, Spain) with a 30^1/2-gauge needle. Control animals were injected with the same volume of the vehicle of capsaicin.
Animals were placed for 2 h in individual black-walled test compartments, which were situated on an elevated mesh-bottom platform with a 0.5-cm^2 grid to provide access to the ventral surface of the hind paws. Punctate mechanical stimulation was applied with a Dynamic Plantar Aesthesiometer (Ugo Basile, Varese, Italy) 15 min after capsaicin or saline administration (i.e., 45 min after the injection of the experimental drug). Briefly, a nonflexible filament (0.5 mm diameter) was electronically driven into the ventral side of the right hind paw (which was previously injected with capsaicin or vehicle) at least 5 mm away from the site of the injection toward the fingers. The intensity of the stimulation was fixed at 0.5 g force, as described previously.[49],[50] When a paw withdrawal response occurred, the stimulus was automatically terminated and the response latency was recorded. The filament was applied three times at intervals of 0.5 min, and the mean value of the three trials was considered the withdrawal latency time of the animal.

Where [4] appears, read: with phenytoin (20 μL of 25 mM in 0.5 mL), 120 min at 37 °C, read-out: Ki (nM) + phenythoin.
Where [5] appears, read: without phenytoin, read-out: Ki (nM) control.

Entries after “also recorded” stand apart in the source; their conditions may differ.

T1 sequence (Q9R0C9 whole entry): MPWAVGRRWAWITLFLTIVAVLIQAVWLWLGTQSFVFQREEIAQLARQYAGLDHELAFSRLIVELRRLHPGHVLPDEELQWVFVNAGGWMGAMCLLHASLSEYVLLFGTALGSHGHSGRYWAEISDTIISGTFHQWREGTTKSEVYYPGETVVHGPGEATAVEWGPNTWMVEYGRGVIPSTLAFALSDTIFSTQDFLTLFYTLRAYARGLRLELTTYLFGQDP

As to `c1ccc(CCCN2CC3(CCN(CCc4ccccc4)CC3)C2)cc1` [4f, 7-Phenethyl-2-(3-phenylpropyl)-2,7-diazaspiro[3.5]nonane], at S1R [1], the “KiS2R/KiS1R (preference for S1R over S2R)” value stood at 1.2 and the Ki was found to be 126 ± 22 nM. For the same molecule, on S2R, the Ki worked out at 149 ± 27 nM.
As to `c1ccc(CCCN2CCCC3CN(c4ccccc4)CC32)cc1` (stereo not shown) [8e, 6-Phenyl-1-(3-phenylpropyl)octahydro-1H-pyrrolo[3,4-b]pyridine], at S1R [1], the “KiS2R/KiS1R (preference for S1R over S2R)” value came to 0.8 and the Ki worked out at 108 ± 31 nM. On S2R, the Ki stood at 91 ± 5.8 nM.
The like results for `c1ccc(CCN2CC3(CCN(c4ccccc4)CC3)C2)cc1` [4a, 2-Phenethyl-7-phenyl-2,7-diazaspiro[3.5]nonane] were, in that order, 2.8, 28 ± 2 nM and 77 ± 12 nM.
Turning to `c1ccc(CCN2CC3(CCN(Cc4ccccc4)CC3)C2)cc1` [4b, 7-Benzyl-2-phenethyl-2,7-diazaspiro[3.5]nonane], at S1R [2], the “ratio Ki (nM) control/+ phenythoin” value is listed as 2.6. In addition, the “S1R functional profile in vitro (phenytoin assay)” value (shortened to “S1R functional profile in vitro”) on S1R [2] was “agonist profile for the S1R”. The Ki at S1R [2] (setting [4]) came to 1.2 nM; at S1R [2] (setting [5]), 3.2 nM; on S1R [1], 2.7 ± 0.3 nM; on S2R it was 27 ± 5.3 nM. For the same molecule, the “effect on the antiallodynic effect of BD-1063” value in assay [3] (4b 2.5–10 mg/kg s.c. associated with BD-1063 40 mg/kg s.c.) is “fully reverse the antiallodynic effect of BD-1063”. Also, the “S1R functional profile in vivo” value in assay [3] is recorded as “S1R agonistic in vivo effect”. Besides, the “antiallodynic effect, compound administered alone” value in assay [3] was “completely devoid of antiallodynic effect; also recorded: no antiallodynic effect”. The “KiS2R/KiS1R (preference for S1R over S2R)” value on S1R [1] is about 10.
For `c1ccc(CCN2CCCC3CN(Cc4ccccc4)CC32)cc1` (stereo not shown) [8c, 6-Benzyl-1-phenethyloctahydro-1H-pyrrolo[3,4-b]pyridine], the results for the Ki at S1R [1] and at S2R were 19 ± 2.6 nM and 126 ± 19 nM, respectively.
With `O=C(c1ccccc1)N1CCC2(CC1)CN(CCc1ccccc1)C2` [5a, (2-Phenethyl-2,7-diazaspiro[3.5]nonan-7-yl)(phenyl)methanone], at S1R [1], the “KiS2R/KiS1R (preference for S1R over S2R)” value came to 6.8 and the Ki is 37 ± 9.6 nM. For the same molecule, the Ki at S2R is 255 ± 62 nM.
In the same order, the values of `c1ccc(CN2CCCC3CN(c4ccccc4)CC32)cc1` (stereo not shown) [8a, 1-Benzyl-6-phenyloctahydro-1H-pyrrolo[3,4-b]pyridine] are 0.6, 254 ± 32 nM and 148 ± 29 nM.
As to `c1ccc(CCN2CCCC3CN(c4ccccc4)CC32)cc1` (stereo not shown) [8b, 1-Phenethyl-6-phenyloctahydro-1H-pyrrolo[3,4-b]pyridine], on S1R [1], the “KiS2R/KiS1R (preference for S1R over S2R)” value turned out to be 0.6 and the Ki was found to be 505 ± 88 nM. Moreover, the Ki on S2R was 279 ± 83 nM.
Turning to `c1ccc(CCCN2CC3(CCN(c4ccccc4)CC3)C2)cc1` [4d, 7-Phenyl-2-(3-phenylpropyl)-2,7-diazaspiro[3.5]nonane], at S1R [1], the “KiS2R/KiS1R (preference for S1R over S2R)” value is reported as 1.5. In addition, the Ki turned out to be 34 ± 7.7 nM at S1R [1] and 51 ± 5 nM on S2R.
In the same order, the values of `c1ccc(CCN2CC3CCCN(CCc4ccccc4)C3C2)cc1` (stereo not shown) [8d, 1,6-Diphenethyloctahydro-1H-pyrrolo[3,4-b]pyridine] are 0.07, 1730 ± 403 nM and 114 ± 15 nM.
In the case of `c1ccc(CCCN2CCCC3CN(Cc4ccccc4)CC32)cc1` (stereo not shown) [8f, 6-Benzyl-1-(3-phenylpropyl)octahydro-1H-pyrrolo[3,4-b]pyridine], at S1R [2], the “ratio Ki (nM) control/+ phenythoin” value was 0.8 and the “S1R functional profile in vitro” value is reported as “antagonists for the S1R”. For the same molecule, at S1R [2] (setting [4]), the Ki is 12 nM. Besides, the Ki at S1R [2] (setting [5]) is 9.6 nM. In assay [3], the “antiallodynic effect when associated with the S1R agonist PRE-084” value is listed as “abolish the antiallodynic effect; also recorded: completely reversed their antiallodynic action”; the “S1R functional profile in vivo” value is “S1R antagonistic in vivo effect”; the “antiallodynic effect, compound administered alone” value is reported as “mimicked the effect of the known S1R antagonist”; the “dose reaching full reversal of mechanical hypersensitivity (maximum antiallodynic effect)” value was 20 mg/kg. Besides, on S1R [1], the “KiS2R/KiS1R (preference for S1R over S2R)” value is recorded as 16.5 and the Ki was 10 ± 1.6 nM. In addition, the Ki at S2R stood at 165 ± 36 nM.
For `c1ccc(CCCN2CCCC3CN(CCc4ccccc4)CC32)cc1` (stereo not shown) [8g, 6-Phenethyl-1-(3-phenylpropyl)octahydro-1H-pyrrolo[3,4-b]pyridine], at S1R [1], the “KiS2R/KiS1R (preference for S1R over S2R)” value amounted to 1.4 and the Ki was found to be 710 ± 150 nM. The Ki on S2R was 1030 ± 200 nM.
Consider `CN1CCN(CCc2ccc(Cl)c(Cl)c2)CC1.Cl.Cl` [BD-1063, 1-[2-(3,4-dichlorophenyl)ethyl]-4-methylpiperazine dihydrochloride, reference compound], for which the “ratio Ki (nM) control/+ phenythoin” value at S1R [2] turned out to be 0.7. At S1R [2] (setting [4]), the Ki is 10 nM. For the same molecule, the Ki at S1R [2] (setting [5]) is 6.7 nM. Besides, in assay [3], the “antiallodynic effect when associated with the S1R agonist PRE-084” value was “abolish the antiallodynic effect”; the “antiallodynic effect, compound administered alone” value is “full and dose-dependent reduction of mechanical hypersensitivity”; the “dose reaching full reversal of mechanical hypersensitivity (maximum antiallodynic effect)” value was found to be 40 mg/kg.
As to `C=CCN1CC[C@]2(C)c3cc(O)ccc3C[C@H]1[C@H]2C` [SKF-10,047, reference compound], at S1R [2], the “ratio Ki (nM) control/+ phenythoin” value is listed as 5.8 and the “S1R functional profile in vitro” value is “agonist profile for the S1R”. In addition, the Ki at S1R [2] (setting [4]) turned out to be 17 nM. Besides, on S1R [2] (setting [5]), the Ki came out at 99 nM.
For the molecule `c1ccc(CCCN2CC3(CCN(Cc4ccccc4)CC3)C2)cc1` [4e, 7-Benzyl-2-(3-phenylpropyl)-2,7-diazaspiro[3.5]nonane], the “KiS2R/KiS1R (preference for S1R over S2R)” value on S1R [1] came to 4.3. Also, the Ki turned out to be 7.2 ± 0.5 nM at S1R [1] and 31 ± 5.4 nM at S2R.
In the case of `Cl.O=C(OCCN1CCOCC1)C1(c2ccccc2)CCCCC1` [PRE-084, 2-(4-morpholinethyl)-1-phenyl cyclohexane carboxylate hydrochloride, reference compound], the “antiallodynic effect, compound administered alone” value in assay [3] was “did not modify the response latency”.
For `c1ccc(CCN2CCC3(CC2)CN(CCc2ccccc2)C3)cc1` [4c, 2,7-Diphenethyl-2,7-diazaspiro[3.5]nonane], the “KiS2R/KiS1R (preference for S1R over S2R)” value on S1R [1] is reported as 6.3. Also, the Ki at S1R [1] was determined as 3.5 ± 0.3 nM; at S2R, 22 ± 2.5 nM.
